Each structure is given as a SMILES string. Structures can show the parent of a compound that is named as a salt.

In the case of `C[C@@]12CC3CC(N)/C(=C/c4ccccc4)CC3CN1CCc1c2[nH]c2ccccc12` (stereo in doubt) (as salt: trifluoroacetic acid salt) [Example 28, 3-Benzylidene-13b-methyl-1,2,3,4,4a,5,7,8,13,13b,14,14a-dodecahydro-indolo[2′,3′: 3,4]pyrido[1,2-b]isoquinolin-2-ylamine], the melting point lay in the range of 203 to 210 °C.
The compound `COc1cc(/C=C2\CC3CN4CCc5c([nH]c6ccccc56)[C@]4(C)CC3C[C@@H]2O)cc(OC)c1` (stereo partly drawn) [Example 24, [2R-[2α(E),4aα,13bβ,14aβ]]-3-(3,5-Dimethoxy-benzylidene)-13b-methyl-1,2,3,4,4a,5,7,8,13,13b,14,14a-dodecahydro-indolo[2′,3′:3,4]pyrido[1,2-b]-isoquinolin-2-ol] had a melting point of 128 to 132 °C.
`CCCC[C@@]12CC3C[C@H](O)/C(=C/c4ccccc4)CC3CN1CCc1c2[nH]c2ccccc12` (stereo partly drawn) [Example 12, [2S-(2α,4aα,13β,14aβ)]-3-Benzylidine-13b-butyl-1,2,3,4,4a,5,7,8,13,13b,14,14a-dodecahydro-1-indolo[2′,3′:3,4]pyrido[1,2-b]-isoquinolin-2-ol]: the melting point was in the range of 222 to 225 °C.
In turn, `COc1cccc(/C=C2\CC3CN4CCc5c([nH]c6ccccc56)[C@]4(C)CC3CC2=O)c1` (stereo partly drawn) [Example 19, [4aR-[(E),4aα, 13bβ,14aβ]]3-(3-Methoxy-benzylidene)-13b-methyl-3,4,4a, 5,7,8,13,13b,14,14a-decahydro-1H-indolo[2′,3′:3,4]pyrido[1,2-b]-isoquinolin-2-one] gave a melting point of 125 to 130 °C.
`COc1cccc(/C=C2\CC3CN4CCc5c([nH]c6ccccc56)[C@]4(C)CC3C[C@@H]2O)c1` (stereo partly drawn) [Example 23]: the melting point fell in the range of 140 to 142 °C.
As to `COc1ccc(/C=C2\CC3CN4CCc5c([nH]c6ccccc56)[C@]4(C)CC3CC2=O)cc1OC` (stereo partly drawn) [Example 18, [4aR-[(E),4aα, 13bβ, 14aβ]]-3-(3,4-Dimethoxy-benzylidene)-13b-methyl-3,4,4a,5,7,8,13,13b,14,14a-decahydro-1H-indolo[2′,3′:3,4]pyrido[1,2-b]-isoquinolin-2-one], the melting point fell in the range of 120 to 125 °C.
Regarding `C[C@@]12CC3CC(=O)/C(=C/c4ccc(Cl)c(Cl)c4)CC3CN1CCc1c2[nH]c2ccccc12` (stereo partly drawn) [Example 21, [4aR-[(E),4aα,13bβ, 14aβ]]-3-(3,4-Dichloro-benzylidene)-13b-methyl-3,4,4a,5,7,8,13,13b,14,14a-decahydro-1H-indolo[2′,3′:3,4]pyrido[1,2-b]-isoquinolin-2-one], the melting point lay within 140 to 145 °C.
Consider `CCC[C@@]12CC3CC(=O)CCC3CN1CCc1c2[nH]c2ccccc12` (stereo partly drawn) [Example 6, [2R-(2α,4aα, 13β, 14aβ)]-13b-Propyl-3,4,4a,5,7,8,13,13b,14,14a-decahydro-1H-indolo[2′,3′;3,4]pyrido[1,2-b]isoquinolin-2-one], for which the melting point was 255 °C (dec.).
Turning to `C=CC[C@@]12CC3C[C@H](O)/C(=C/c4ccccc4)CC3CN1CCc1c2[nH]c2ccccc12` (stereo partly drawn) [Example 10, [2S-(2α,4aα,13β,14aα)]-13b-Allyl-3-benzylidene-1,2,3,4,4a,5,7,8,13,13b,14,14a-dodecahydro-indolo[2′,3′:3,4]pyrido[1,2-b]isoquinolin-2-ol], the melting point lay in the range of 211 to 213 °C.
With `CCCC[C@@]12CC3C[C@H](O)CCC3CN1CCc1c2[nH]c2ccccc12` (stereo partly drawn) [Example 1, [2R-(2α,4aα,13β,14aβ)]-13b-Butyl-1,2,3,4,4a,5,7,8,13,13b,14,14a-dodecahydro-indolo[2′,3′:3,4]pyrido[1,2-b]isoquinolin-2-ol] the figure was 235 °C (dec.); with `C[C@@]12CC3CC(=NO)/C(=C/c4ccccc4)CC3CN1CCc1c2[nH]c2ccccc12` (stereo partly drawn) [Example 27, [4aR-[(E),4aα,13bβ,14aβ]]-3-Benzylidene-13b-methyl-3,4,4a,5,7,8,13,13b,14,14a-decahydro-1H-indolo[2′,3′:3,4]pyrido[1 ,2-b]-isoquinolin-2-one oxime], 142 to 145 °C.
For the compound `CCC[C@@]12CC3C[C@H](O)/C(=C/c4ccccc4)CC3CN1CCc1c2[nH]c2ccccc12` (stereo partly drawn) [Example 11, [2S-(2α,4aα,13β, 14aβ)]-3-Benzylidine-13b-propyl-1,2,3,4,4a,5,7,8,13,13b,14,14a-dodecahydro-indolo[2′,3′:3,4]pyrido[1,2-b]-isoquinolin-2-ol], the melting point fell in the range of 224 to 226 °C.
In the case of `COc1cc(/C=C2\CC3CN4CCc5c([nH]c6ccccc56)[C@]4(C)CC3CC2=O)cc(OC)c1` (stereo partly drawn) [Example 20, [4aR-[(E),4aα,13bβ, 14aβ]]-3-(3,5-Dimethoxy-benzylidene)-13b-methyl-3,4,4a,5,7,8,13,13b,14,14a-decahydro-1H-indolo[2′,3′:3,4]pyrido[1,2-b]-isoquinolin-2-one], the melting point lay within 110 to 120 °C.
`COc1ccc(/C=C2\CC3CN4CCc5c([nH]c6ccccc56)[C@]4(C)CC3C[C@@H]2O)cc1OC` (stereo partly drawn) [Example 22, [2R-[2α(E),4aα, 13bβ, 14aβ]]-3-(3,4-Dimethoxy-benzylidene)-13b-methyl-1,2,3,4,4a,5,7,8,13,13b,14,14a-dodecahydro-indolo[2′,3′:3,4]pyrido[1,2-b]-isoquinolin-2-ol] gave a melting point of 118 to 121 °C.
`C[C@@]12CC3C[C@H](O)/C(=C/c4ccc(Cl)c(Cl)c4)CC3CN1CCc1c2[nH]c2ccccc12` (stereo partly drawn) [Example 25, [2R-[2α(E),4aα,13bβ, 14aβ]]-3-(3,4-Dichloro-benzylidene)-13b-methyl-1,2,3,4,4a,5,7,8,13,13b,14,14a-dodecahydro-indolo[2′,3′:3,4]pyrido[1,2-b]-isoquinolin-2-ol]: the melting point was 125 to 130 °C.
As to `C=CC[C@@]12CC3CC(=O)CCC3CN1CCc1c2[nH]c2ccccc12` (stereo partly drawn) [Example 5, [2R-(2α,4aα,13β,14aβ)]-13b-Allyl-3,4,4a,5,7,8,13,13b,14,14a-decahydro-1H-indolo[2′,3′:3,4]pyrido[1,2-b]isoquinolin-2-one], the melting point was 220 to 223 °C.
The result for `CCC[C@@]12CC3C[C@H](O)CCC3CN1CCc1c2[nH]c2ccccc12` (stereo partly drawn) [Example 3, [2R-(2α,4aα,13β,14aβ)]-13b-Propyl-1,2,3,4,4a,5,7,8,13,13b,14,14a-dodecahydro-indolo[2′,3′:3,4]pyrido[1,2-b]isoquinolin-2-ol] reads 195 °C (dec.).
For `C=CC[C@@]12CC3C[C@H](O)CCC3CN1CCc1c2[nH]c2ccccc12` (stereo partly drawn) [Example 2, [2R-(2α,4aα, 13β,14aβ)]-13b-Allyl-1,2,3,4,4a,5,7,8,13,13b,14,14a-dodecahydro-indolo[2′,3′:3,4]pyrido[1,2-b]isoquinolin-2-ol], the melting point lay in the range of 228 to 230 °C.

These data come from US20020072606A1, “Chemokine receptor antagonists” (Warner-Lambert Company, priority 1999, published 2002).
